Laboratory results: paper PMC4498792, “Characterization of Novel Src Family Kinase Inhibitors to Attenuate Microgliosis” (PLoS ONE, 2015)
Read-outs that look alike come from different tables or passages of the source. Values belong to the compound of their own block, whether it stands above or below them.

What was measured:
microglial BV2 cells = test: LDH release cell viability assay; type: cell-based, murine; conditions: 0.5nM to 50 μM, 24h
Experimental: (§1) BV2 cells were harvested and counted before stimulation. The cells were untreated (control), vehicle-treated (DMSO), or treated with increasing concentrations (0.5nM, 5nM, 50nM, 0.5 μM, 5μM and 50 μM) of LDDN-0003499, LDDN-0075935, LDDN-0125694 or LDDN-0127164 for 24h to assess toxicity and 1 hour to assess effects on basal kinase activity. For secretion analyses, cells were pretreated with drugs for 1 hour prior to stimulation with 50nM Aβ (overnight) or 25ng/mL LPS (overnight) in the presence of the drugs in serum free DMEM/F12. Media were collected for ELISA analysis and for LDH release viability assays. For signaling analyses, cells were pretreated with drugs for 1 hour prior to 5 minute stimulation with 1μM Aβ 1–42. […] Protein concentrations were determined using the Bradford method.
For the lactate dehydrogenase release (LDH) assay, media following the 24 hour cell stimulations were transferred onto a new 96-well plate and LDH concentrations assayed according to manufacturer instructions (Promega Corporation, Madison, WI). Background absorbance was subtracted from each condition. All absorbance values for the LDH assay were averaged and plotted ±SD.

Lyn [1] = molecular target: T1, Lyn (Mus musculus, UniProt P25911); test: Basal pLyn (Tyr 396) western blot in BV2 cells; type: cell-based, murine; conditions: 0.5nM to 50 μM, 1h
T1 construct: endogenous in cells; host or cells: BV2 murine microglial cell line
Experimental: as §1
(§2) Cell lysates were resolved by SDS-PAGE on 10% polyacrylamide gels and transferred to PVDF membranes. […] Blots were washed followed by incubation with HRP-conjugated secondary antibodies and antibody binding was detected via enhanced chemiluminescence (GE Healthcare, Piscataway, NJ). Western blots were quantified using Adobe Photoshop software. […]

TNF-α secretion [2] = test: Aβ-stimulated TNF-α secretion ELISA in BV2 cells; type: cell-based, murine; conditions: 1h pretreatment, 50nM Aβ 1-42, 24h
Experimental: as §1
(§3) Media were collected from BV2 cells following 24 hour stimulations for ELISA analyses. Levels of mouse TNF-α, IL-6, and IL-1β in the media were determined using commercially available ELISA kits according to the manufacturer’s protocol (R&D Systems).

Src [3] = molecular target: T2, Src (Mus musculus, UniProt P05480); test: Basal pSrc (Tyr 416) western blot in BV2 cells; type: cell-based, murine; conditions: 0.5nM to 50 μM, 1h
T2 construct: endogenous in cells; host or cells: BV2 murine microglial cell line
Experimental: as §1, §2

[4] = Microsomal stability / intrinsic clearance assay, mouse; type: in vitro ADME; conditions: liver microsomes
Experimental: (§4) Briefly, the compound was incubated with human or mouse microsomes in the presence or absence of NADPH. […] Data were converted to percent remaining by dividing by the time zero concentration value. In vitro half-life was determined based on the slope of the (first-order) decay curve and this value was converted to intrinsic clearance (CLint). […] Briefly, Caco-2 cells were plated in Millipore 96-well transwell plates and allowed to differentiate for 21 days to form polarized, epithelial monolayers. For apical to basolateral (A→B) permeability, the compound was added to the apical (A) side and amount permeation determined on the basolateral (B) side. For B→A permeability, the compound was added on the basolateral (B) side. Upon completion of the incubation (2 hr), the receiver side buffer was removed for analysis by LC-MS/MS. From the samples, apparent permeability rate coefficients (Papp values) and efflux ratios were determined for the compound.

ERK [5] = test: Aβ-stimulated pERK western blot in BV2 cells; type: cell-based, murine; conditions: 1h pretreatment, 1 μM Aβ
Experimental: (§5) BV2 cells were harvested and counted before stimulation. The cells were untreated (control), vehicle-treated (DMSO), or treated with increasing concentrations (0.5nM, 5nM, 50nM, 0.5 μM, 5μM and 50 μM) of […]-0125694 or LDDN-0127164 for 24h to assess toxicity and 1 hour to assess effects on basal kinase activity. […] Media were collected for ELISA analysis and for LDH release viability assays. For signaling analyses, cells were pretreated with drugs for 1 hour prior to 5 minute stimulation with 1μM Aβ 1-42. […] Protein concentrations were determined using the Bradford method. Cell lysates were resolved by SDS-PAGE on 10% polyacrylamide gels and transferred to PVDF membranes. Western blots were blocked with 3% bovine serum albumin and incubated in anti-phospho-[…][…]), anti-pSrc ([…]), anti-pERK, anti-pLyn ([…]), anti-pJNK, and anti-phospho-p38 primary antibodies with anti-α-tubulin, Src, ERK2, Lyn, JNK, and p38 antibodies used as the respective loading controls. Blots were washed followed by incubation with HRP-conjugated secondary antibodies and antibody binding was detected via enhanced chemiluminescence (GE Healthcare, Piscataway, NJ). Western blots were quantified using Adobe Photoshop software. Optical densities of bands were normalized using their appropriate loading controls and averaged (±) SD.

ERK [6] = test: Basal pERK western blot in BV2 cells; type: cell-based, murine; conditions: 0.5nM to 50 μM, 1h
Experimental: as §1, §2

TNF-α secretion [7] = test: LPS-stimulated TNF-α secretion ELISA in BV2 cells; type: cell-based, murine; conditions: 1h pretreatment, 25ng/ml LPS, 24h
Experimental: as §1, §3

Caco-2 cells = test: Caco-2 bidirectional permeability assay; type: in vitro ADME; conditions: Caco-2, 10 μM, 2 hr
Experimental: as §4

[8] = Caco-2 bidirectional permeability assay; type: in vitro ADME; conditions: human
Experimental: as §4

Src [9] = molecular target: T2, Src; test: Aβ-stimulated pSrc western blot in BV2 cells; type: cell-based, murine; conditions: 1h pretreatment, 1 μM Aβ 1-42 for 5 minutes
Experimental: as §5

[10] = Microsomal stability / intrinsic clearance assay, human; type: in vitro ADME; conditions: liver microsomes
Experimental: as §4

JNK = test: Basal pJNK western blot in BV2 cells; type: cell-based, murine; conditions: 0.5nM to 50 μM, 1h
Experimental: as §1, §2

p38 = test: Basal p-p38 western blot in BV2 cells; type: cell-based, murine; conditions: 0.5nM to 50 μM, 1h
Experimental: as §1, §2

IL-6 secretion = test: Aβ-stimulated IL-6 secretion ELISA in BV2 cells; type: cell-based, murine; conditions: 1h pretreatment, 50nM Aβ 1-42, 24h
Experimental: as §1, §3

Lyn [11] = molecular target: T1, Lyn; test: Aβ-stimulated pLyn western blot in BV2 cells; type: cell-based, murine
Experimental: as §5

[12] = tested on: total protein phosphotyrosine levels in BV2 cells; test: Total protein phosphotyrosine western blot (4G10), basal; type: cell-based, murine; conditions: 0.5nM to 50 μM, 1h, vs vehicle
Experimental: as §1, §2

[13] = read-out: NADPH-Dependent CLint

T2 sequence (P05480 whole entry): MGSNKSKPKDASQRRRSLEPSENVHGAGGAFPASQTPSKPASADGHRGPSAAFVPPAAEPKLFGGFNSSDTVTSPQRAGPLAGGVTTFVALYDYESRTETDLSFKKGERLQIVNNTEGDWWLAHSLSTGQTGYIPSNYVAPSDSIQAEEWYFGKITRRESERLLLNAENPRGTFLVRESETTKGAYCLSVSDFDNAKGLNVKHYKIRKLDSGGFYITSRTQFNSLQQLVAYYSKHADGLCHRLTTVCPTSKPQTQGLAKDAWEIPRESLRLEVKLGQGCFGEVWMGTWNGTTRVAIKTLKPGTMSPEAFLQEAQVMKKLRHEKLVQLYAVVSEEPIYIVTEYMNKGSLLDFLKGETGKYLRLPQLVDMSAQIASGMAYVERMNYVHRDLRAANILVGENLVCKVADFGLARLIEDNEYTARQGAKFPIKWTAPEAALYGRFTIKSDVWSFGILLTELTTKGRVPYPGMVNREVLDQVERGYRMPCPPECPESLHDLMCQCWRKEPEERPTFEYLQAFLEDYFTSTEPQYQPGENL
T1 sequence (P25911 whole entry): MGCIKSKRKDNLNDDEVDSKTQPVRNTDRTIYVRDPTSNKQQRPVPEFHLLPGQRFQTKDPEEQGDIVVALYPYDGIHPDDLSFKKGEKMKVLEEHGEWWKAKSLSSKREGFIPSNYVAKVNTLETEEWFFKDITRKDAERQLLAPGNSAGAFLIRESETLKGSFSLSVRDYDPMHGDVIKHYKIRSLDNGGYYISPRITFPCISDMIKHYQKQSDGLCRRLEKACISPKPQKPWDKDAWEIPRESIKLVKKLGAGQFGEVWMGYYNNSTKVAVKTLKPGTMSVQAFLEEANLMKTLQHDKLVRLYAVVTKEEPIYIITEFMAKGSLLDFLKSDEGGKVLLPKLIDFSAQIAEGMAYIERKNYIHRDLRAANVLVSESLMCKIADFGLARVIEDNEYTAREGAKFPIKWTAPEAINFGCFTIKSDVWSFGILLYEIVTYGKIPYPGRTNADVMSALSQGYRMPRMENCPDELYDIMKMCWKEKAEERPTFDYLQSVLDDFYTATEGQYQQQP

active, phosphorylated Lyn (pLyn) protein levels (Lyn [1]): dose-dependent decrease | active, phosphorylated Src (pSrc) protein levels (Src [3]): dose-dependent decrease | half-life at 1 μM ([4]; read-out: NADPH-Depend. T1/2): 16.6 min | microsomal CLint at 1 μM [4, 13]: 83.3 µL/min/mg | microsomal CLint at 1 μM ([4]; read-out: NADPH-Free CLint): 15.8 µL/min/mg | half-life at 1 μM ([4]; read-out: NADPH-Free T1/2): 88 min | Caco-2 permeability, comment (Caco-2 cells): high permeability | efflux ratio at 2 hr, 10 μM ([8]; Caco-2, 10 μM, 2 hr, read-out: Efflux Ratio Papp(B→A) / Papp(A→B)): 0.85 | Papp A→B at 2 hr, 10 μM ([8]; Caco-2, 10 μM, 2 hr, read-out: mean A→B Papp): 19 ×10⁻⁶ cm/s | Papp B→A at 2 hr, 10 μM ([8]; Caco-2, 10 μM, 2 hr, read-out: mean B→A Papp): 16.2 ×10⁻⁶ cm/s | concentration required to attenuate the Aβ stimulated increase in pSrc (Src [9]): 500 nM | half-life at 1 μM ([10]; read-out: NADPH-Depend. T1/2): 14.1 min | microsomal CLint at 1 μM [10, 13]: 98.4 µL/min/mg | microsomal CLint at 1 μM ([10]; read-out: NADPH-Free CLint): 21.2 µL/min/mg | half-life at 1 μM ([10]; read-out: NADPH-Free T1/2): 65 min | selectivity for Lyn versus Src in the Aβ stimulation paradigm (Lyn [11]; 50nM (pLyn) vs 500nM (pSrc)): tenfold | concentration sufficient to significantly attenuate the Aβ stimulated increase in pLyn levels (Lyn [11]; 1h pretreatment, 1 μM Aβ 1-42 for 5 minutes): 50 nM
SMILES: COc1cc2ncnc(Nc3ccc(Cl)cc3Cl)c2cc1OC [LDDN-0003499]
toxicity to microglial BV2 cells (LDH release, cell viability) (microglial BV2 cells): not toxic | Aβ stimulated TNF-α secretion (TNF-α secretion [2]): dose-dependently inhibited | concentration at which inhibition of Aβ stimulated TNF-α secretion begins (TNF-α secretion [2]): 500 nM | pERK levels following Aβ stimulation (ERK [5]): no inhibition | phosphorylated ERK (pERK) protein levels (ERK [6]): no ability to alter | LPS stimulated TNF-α secretion (TNF-α secretion [7]): attenuated | phosphorylated JNK (pJNK) protein levels (JNK): no ability to alter | phosphorylated p38 (p-p38) protein levels (p38): no ability to alter | Aβ stimulated IL-6 secretion (IL-6 secretion): dose-dependently inhibited | total protein phosphotyrosine levels [12]: significantly decrease the total protein phosphotyrosine levels in a dose-dependent manner

active, phosphorylated Lyn (pLyn) protein levels (Lyn [1]): not able to attenuate | active, phosphorylated Src (pSrc) protein levels (Src [3]): not able to attenuate
SMILES: O=C(Nc1cc(Cl)ccc1Cl)c1noc2c1CCC2 [LDDN-0075935]
toxicity to microglial BV2 cells (LDH release, cell viability) (microglial BV2 cells): not toxic | phosphorylated ERK (pERK) protein levels (ERK [6]): stimulated increased pERK protein levels at the highest drug concentration | phosphorylated JNK (pJNK) protein levels (JNK): did not attenuate | phosphorylated p38 (p-p38) protein levels (p38): did not attenuate | total protein phosphotyrosine levels [12]: no effect

Papp A→B at 2 hr, 10 μM ([8]; Caco-2): 27.1 ×10⁻⁶ cm/s | Papp B→A at 2 hr, 10 μM ([8]; Caco-2): 10.4 ×10⁻⁶ cm/s
SMILES: CC(=O)CC(c1ccccc1)c1c(O)c2ccccc2oc1=O (stereo not drawn) [warfarin, reference compound]
